{"source": "patent US20210316003A1", "about": "(Immunomedics, Inc., priority 2020, published 2021)", "origin": "cited, not measured here", "key": {"patients": {"system": "patients", "details": "single-agent therapy; cited from earlier work"}, "[1]": {"system": "patients with advanced colorectal cancer", "details": "cited from earlier work"}, "SCLC patients": {"system": "SCLC patients", "details": "28 SCLC patients; cited from earlier work"}, "[2]": {"system": "patients with relapsed SCLC", "details": "cited from earlier work"}, "[3]": {"system": "patients with recurrent SCLC", "details": "nivolumab alone; cited from earlier work"}}, "note": "Where two headings read alike, the source gives them in different places."}
{"compound": "CCc1c2c(nc3ccc(OC(=O)N4CCC(N5CCCCC5)CC4)cc13)-c1cc3c(c(=O)n1C2)COC(=O)[C@]3(O)CC", "note": "[irinotecan]", "values": [{"measurement": "Grade ≥3 events of early diarrhea", "setting": "patients", "value": 8, "unit": "%"}, {"measurement": "Grade ≥3 events of late diarrhea", "setting": "patients", "value": 31, "unit": "%"}, {"measurement": "Response", "setting": "[1]; TDP1 IVS12+79 G/G genotype", "value": 64, "unit": "%"}, {"measurement": "Response", "setting": "[1]; TDP1 IVS12+79 T/T genotype", "value": 25, "unit": "%"}, {"measurement": "Incidence of grade 3/4 neutropenia", "setting": "[1]; TOP1 IVS4+61 A/A genotype (small sample size)", "value": 50, "unit": "%"}, {"measurement": "Incidence of grade 3/4 neutropenia", "setting": "[1]; TOP1 IVS4+61 G/G genotype", "value": 8, "unit": "%"}]}
{"compound": "CC[C@@]1(O)C(=O)OCc2c1cc1n(c2=O)Cc2cc3c(CN(C)C)c(O)ccc3nc2-1", "note": "[topotecan]", "values": [{"measurement": "Median survival", "setting": "SCLC patients", "value": 5, "unit": "months"}, {"measurement": "One-year survival", "setting": "SCLC patients", "value": 3.5, "unit": "%"}, {"measurement": "PR", "setting": "SCLC patients", "value": 11, "unit": "%"}, {"measurement": "Grade ≥3 anemia", "setting": "[2]; SCLC, meta-analysis", "value": 24, "unit": "%"}, {"measurement": "Grade ≥3 neutropenia", "setting": "[2]; SCLC, meta-analysis", "value": 69, "unit": "%"}, {"measurement": "Grade ≥3 thrombocytopenia", "setting": "[2]; SCLC, meta-analysis", "value": 1, "unit": "%"}, {"measurement": "Patients who died from this chemotherapy", "setting": "[2]; SCLC, meta-analysis", "value": "approximately 2%"}, {"measurement": "Objective response rate", "setting": "[2]; chemoresistant frontline SCLC patients", "value": 5, "unit": "%"}, {"measurement": "Objective response rate", "setting": "[2]; chemosensitive SCLC patients", "value": 17, "unit": "%"}]}
{"compound": "Nivolumab: inhibitor of the T-cell checkpoint receptor PD-1", "values": [{"measurement": "Response rate", "setting": "[3]", "value": 10, "unit": "%"}]}
